These are literature values, as cited in US10561630B2, “Hydroxycitric acid compounds and capsule liquid delivery” (GLYKON TECHNOLOGIES GROUP, LLC, priority 2016, dated 2020).

The conditions of data set [1]: single large oral dose or two divided oral doses; min. 2.63 mmoles/kg once per day or 0.33 mmoles/kg twice per day; high-sugar diet.
For data set [2] the following is noted: 2-week period.

Structures are written as SMILES.

Turning to `O=C(O)CC(O)(C(=O)O)C(O)C(=O)O` (single isomer, unassigned; (-)) [HCA, (−)-hydroxycitric acid], in data set [1], the “reduction in food consumption” value is listed as at least 10%. Besides, the food intake decreased in data set [2] (900 mg HCA, dissolved in 100 ml tomato juice) was 15-30%. Also, the weight loss entry in data set [2] is “no significant weight loss”.
